Measured values: paper PMC9198986, “Controlling Doxorubicin Release from a Peptide Hydrogel through Fine-Tuning of Drug–Peptide Fiber Interactions” (Biomacromolecules, 2022)
Where no end group is shown, it is not given here.

Experiments:
[1] = Gels biodegradability: fraction of intact peptide after incubation in 50% FBS (RP-HPLC); format: in vitro ADME, bovine; settings: 14 mM hydrogel, 37 °C; for level of degradation up to 12 h: first 12 h; for susceptibility to enzymatic degradation, rank: up to 72 h
Protocol: Peptide hydrogels (14 mM) were incubated in either PBS or 50% FBS ddH2O solution at 37 °C. At selected time points (2, 5, 10, 24, 48, and 72 h), the gels were disassembled by dilution to 1 mg mL^–1 in a 1% trifluoroacetic acid (TFA) water/acetonitrile (50/50 v/v) solution. Reversed phase-high-performance liquid chromatography (RP-HPLC) analyses were conducted at 25 °C on an Ultimate 3000 HPLC system (Dionex) equipped with a variable wavelength UV detector (wavelength used 210 nm) and a gradient pump. Separation was performed on a Phenomenex Jupiter 4μ Proteo column 90A° (250 × 4.66 mm) fitted with a 300 Guard Cartridge (4.3 × 10 mm). A flow rate of 1 mL min^–1 was used for all separations. The mobile phase consisted of a mixture of water: TFA(0.1%)—solvent A and acetonitrile/TFA(0.1%)—solvent B. An elution gradient of 90% solvent A/10% solvent B to 30% solvent A/70% solvent B over 45 min was used. 100 μL of sample aliquots was injected into the column using an ACC-3000 autosampler. Data were analyzed using Chromoleon 6.80 software. The peptide stability was expressed as a fraction of intact peptide present in the sample at sampling time t using the following equation [drawing 1] 1 where AUCPBS (t) and AUCFBS (t) are the intact peptide peak areas under the HPLC curves obtained at the sampling time t for hydrogels incubated with PBS and 50% FBS ddH2O solutions, respectively.
We also examined the susceptibility of these peptide hydrogels to enzymatic degradation by incubating them in a 50 FBS/50 PBS media mixture. At the selected time points, the samples were homogenized (release buffer + remaining hydrogel), and the fraction of intact, that is, nondegraded peptide was estimated via HPLC. FBS contains a wide array of proteases and other enzymes that will degrade proteins and peptides. […] Dox release was also measured using a 50 FBS/50 PBS mixture as release media. […] From 24 h onward, similar release profiles were obtained in the presence and absence of FBS, probably due to the fact that by then most of the Dox has been released, and the supernatant release media is reaching saturation (Figure S5).

3T3 murine fibroblasts = test: 3T3 fibroblast viability under hydrogel inserts (PicoGreen dsDNA); format: cell-based, mouse; settings: non-loaded 14 mM hydrogel in insert above 3T3 cells; for cell viability with non-loaded hydrogels: over 48 h, PicoGreen dsDNA
Protocol: 3T3 murine fibroblasts were seeded (1.5 × 10^4 cells cm^–2) in 12-well cell culture plates and 1.5 mL of DMEM supplemented with 10% FBS added per well. 400 μl of hydrogels (14 mM) with and without Dox (240 μM) were plated within 12-well cell culture plate inserts (ThinCert, Greiner Bio-One, pore size 1 μm) and placed above the cells. At selected time points, cells were retrieved from the cell culture wells, and the amount of double-stranded DNA (dsDNA) content was measured using PicoGreen dsDNA assay (Life Technologies, Carlsbad, CA, USA) following the manufacturer’s protocol.
Finally, we confirmed that the Dox released from the hydrogels was still active by investigating its effect on 3T3 mouse fibroblasts. This was achieved by culturing the fibroblasts in 2D in cell culture wells and placing the hydrogels (loaded and non-loaded with Dox) in inserts equipped with porous membranes above the cells (see schematics in Figure 6). This experimental setup was used to avoid a direct contact between the hydrogels and the cells but still allow the drug to diffuse from the hydrogels into the cell culture media. Dox is known to affect cell proliferation and viability via DNA intercalation and inhibition of topoisomerase II.[24],[25] Therefore, at the selected time points, the effect of Dox on fibroblasts viability was evaluated by measuring the total amount of double-stranded DNA (dsDNA), which is directly proportional to the number of live cells present.

Row | Sequence | level of degradation up to 12 h ([1]; RP-HPLC) | dsDNA detected after 48 h as % of the amount at t = 0 (3T3 murine fibroblasts; DMEM 10% FBS, 48 h, PicoGreen) [%] | cell viability with non-loaded hydrogels (3T3 murine fibroblasts) | level of degradation ([1]; RP-HPLC) | peptide degraded ([1]; after 5 h, RP-HPLC UV 210 nm, intact peak area vs PBS incubation) [%] | susceptibility to enzymatic degradation, rank ([1]; RP-HPLC) | hydrogel degradation at later times ([1]; >24 h, RP-HPLC)
1 | FKFEFKFK [FK] | low level of degradation | 40 | some level of cytotoxicity |  |  |  | 
2 | FEFKFEFK [F8] |  |  | good cell viabilities | minimal degradation |  |  | 
3 | KFEFKFEFKK [KF8K] |  |  | good cell viabilities |  | ~40 | most susceptible | 
4 | FEFEFKFE [FE] | low levels of degradation |  | good cell viabilities |  |  |  | more substantial
5 | FEFKFEFKK [F8K] |  |  | good cell viabilities | minimal degradation |  | least susceptible | 
